# Source: patent US11117892B2, “Pyrrolo-pyridine derivative compound, method for preparing same, and pharmaceutical composition containing same as active ingredient for prevention or treatment of protein kinase-related diseases” (DAEGU-GYEONGBUK MEDICAL INNOVATION FOUNDATION, priority 2017, dated 2021)
# Experiments:
# Test in all cases: scanMAX Kinase assay panel
# Format in all cases: binding
# Details in all cases: read-out: % control
# RET(V804L) = RET(V804L) (Homo sapiens (Human), UniProt P07949, V804L)
# How it was run: (§1)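 % control read-out: DMSO vehicle = 100%, positive control = 0%, test compound scaled between these two. Selectivity profiling was done on the scanMAX kinase panel.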
# EPHB4 = EPHB4 (Homo sapiens (Human), UniProt P54760)
# How it was run: as §1
# [1] = biological target: ABL1(F317I)-phosphorylated (Homo sapiens (Human), UniProt P00519, F317I)
# How it was run: as §1
# SBK1 = SBK1 (Homo sapiens (Human), UniProt Q52WX2)
# How it was run: as §1
# FGFR4 = FGFR4 (Homo sapiens (Human), UniProt P22455)
# How it was run: as §1
# MINK = MINK (Homo sapiens (Human), UniProt Q8N4C8)
# How it was run: as §1
# CASK = CASK (Homo sapiens (Human), UniProt O14936)
# How it was run: as §1
# KIT(D816H) = KIT(D816H) (Homo sapiens (Human), UniProt P10721, D816H)
# How it was run: as §1
# RET = RET (Homo sapiens (Human), UniProt P07949)
# How it was run: as §1
# GRK1 = GRK1 (Homo sapiens (Human), UniProt Q15835)
# How it was run: as §1
# MAP4K4 = MAP4K4 (Homo sapiens (Human), UniProt O95819)
# How it was run: as §1
# QSK = QSK (Homo sapiens (Human), UniProt Q9Y2K2)
# How it was run: as §1
# AXL = AXL (Homo sapiens (Human), UniProt P30530)
# How it was run: as §1
# ARK5 = ARK5 (Homo sapiens (Human), UniProt O60285)
# How it was run: as §1
# RIOK1 = RIOK1 (Homo sapiens (Human), UniProt Q9BRS2)
# How it was run: as §1
# MUSK = MUSK (Homo sapiens (Human), UniProt O15146)
# How it was run: as §1
# FGFR3 = FGFR3 (Homo sapiens (Human), UniProt P22607)
# How it was run: as §1
# PIK3CA = PIK3CA (Homo sapiens (Human), UniProt P42336)
# How it was run: as §1
# LRRK2 = LRRK2 (Homo sapiens (Human), UniProt Q5S007)
# How it was run: as §1
# NDR1 = NDR1 (Homo sapiens (Human), UniProt Q15208)
# How it was run: as §1
# NEK9 = NEK9 (Homo sapiens (Human), UniProt Q8TD19)
# How it was run: as §1
# [2] = biological target: ABL1(T315I)-nonphosphorylated (Homo sapiens (Human), UniProt P00519, T315I)
# How it was run: as §1
# PKN2 = PKN2 (Homo sapiens (Human), UniProt Q16513)
# How it was run: as §1
# PIK3CA(H1047L) = PIK3CA(H1047L) (Homo sapiens (Human), UniProt P42336, H1047L)
# How it was run: as §1
# PIM2 = PIM2 (Homo sapiens (Human), UniProt Q9P1W9)
# How it was run: as §1
# [3] = biological target: ABL1(E255K)-phosphorylated (Homo sapiens (Human), UniProt P00519, E255K)
# How it was run: as §1
# RIOK2 = RIOK2 (Homo sapiens (Human), UniProt Q9BVS4)
# How it was run: as §1
# MST1R = MST1R (Homo sapiens (Human), UniProt Q04912)
# How it was run: as §1
# RIPK4 = RIPK4 (Homo sapiens (Human), UniProt P57078)
# How it was run: as §1
# PFTAIRE2 = PFTAIRE2 (Homo sapiens (Human), UniProt Q96Q40)
# How it was run: as §1
# [4] = biological target: ABL1(T315I)-phosphorylated (Homo sapiens (Human), UniProt P00519, T315I)
# How it was run: as §1
# [5] = biological target: RSK1(Kin.Dom.2-C-terminal) (Homo sapiens (Human), UniProt Q15418)
# How it was run: as §1
# FLT3(N841I) = FLT3(N841I) (Homo sapiens (Human), UniProt P36888, N841I)
# How it was run: as §1
# TAOK2 = TAOK2 (Homo sapiens (Human), UniProt Q9UL54)
# How it was run: as §1
# NEK2 = NEK2 (Homo sapiens (Human), UniProt P51955)
# How it was run: as §1
# TSSK3 = TSSK3 (Homo sapiens (Human), UniProt Q96PN8)
# How it was run: as §1
# AURKA = AURKA (Homo sapiens (Human), UniProt O14965)
# How it was run: as §1
# CAMK1D = CAMK1D (Homo sapiens (Human), UniProt Q8IU85)
# How it was run: as §1
# Chain of RET(V804L) (P07949 29-1114 V804L): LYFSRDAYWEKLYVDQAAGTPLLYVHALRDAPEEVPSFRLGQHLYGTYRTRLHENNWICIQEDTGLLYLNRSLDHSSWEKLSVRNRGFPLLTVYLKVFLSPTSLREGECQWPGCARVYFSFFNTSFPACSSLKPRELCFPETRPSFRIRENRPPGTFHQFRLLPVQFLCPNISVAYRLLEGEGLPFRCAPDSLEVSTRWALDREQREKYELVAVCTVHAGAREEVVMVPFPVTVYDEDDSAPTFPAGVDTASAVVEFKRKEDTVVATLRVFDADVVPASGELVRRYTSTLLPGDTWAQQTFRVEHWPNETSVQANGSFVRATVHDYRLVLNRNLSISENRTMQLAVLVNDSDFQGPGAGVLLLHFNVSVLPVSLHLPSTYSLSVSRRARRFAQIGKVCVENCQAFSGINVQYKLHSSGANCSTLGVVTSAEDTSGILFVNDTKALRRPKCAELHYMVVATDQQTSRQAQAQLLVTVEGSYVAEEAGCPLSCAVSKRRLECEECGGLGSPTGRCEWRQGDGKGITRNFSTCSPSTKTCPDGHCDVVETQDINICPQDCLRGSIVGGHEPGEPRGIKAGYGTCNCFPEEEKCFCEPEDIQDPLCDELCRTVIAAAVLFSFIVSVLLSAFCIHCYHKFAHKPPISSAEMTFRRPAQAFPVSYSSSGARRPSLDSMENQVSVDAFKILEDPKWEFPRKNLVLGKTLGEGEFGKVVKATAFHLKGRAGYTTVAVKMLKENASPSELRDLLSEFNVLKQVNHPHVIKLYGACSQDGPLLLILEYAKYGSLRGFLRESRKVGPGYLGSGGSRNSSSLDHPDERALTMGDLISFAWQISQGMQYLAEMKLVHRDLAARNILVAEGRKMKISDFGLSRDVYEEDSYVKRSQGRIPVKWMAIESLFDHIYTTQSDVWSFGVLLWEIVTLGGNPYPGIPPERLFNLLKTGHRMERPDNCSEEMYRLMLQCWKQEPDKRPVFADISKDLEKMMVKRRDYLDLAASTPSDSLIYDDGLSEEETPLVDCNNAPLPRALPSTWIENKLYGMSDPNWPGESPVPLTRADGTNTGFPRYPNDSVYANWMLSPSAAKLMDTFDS
# Chain of CASK (O14936 whole entry): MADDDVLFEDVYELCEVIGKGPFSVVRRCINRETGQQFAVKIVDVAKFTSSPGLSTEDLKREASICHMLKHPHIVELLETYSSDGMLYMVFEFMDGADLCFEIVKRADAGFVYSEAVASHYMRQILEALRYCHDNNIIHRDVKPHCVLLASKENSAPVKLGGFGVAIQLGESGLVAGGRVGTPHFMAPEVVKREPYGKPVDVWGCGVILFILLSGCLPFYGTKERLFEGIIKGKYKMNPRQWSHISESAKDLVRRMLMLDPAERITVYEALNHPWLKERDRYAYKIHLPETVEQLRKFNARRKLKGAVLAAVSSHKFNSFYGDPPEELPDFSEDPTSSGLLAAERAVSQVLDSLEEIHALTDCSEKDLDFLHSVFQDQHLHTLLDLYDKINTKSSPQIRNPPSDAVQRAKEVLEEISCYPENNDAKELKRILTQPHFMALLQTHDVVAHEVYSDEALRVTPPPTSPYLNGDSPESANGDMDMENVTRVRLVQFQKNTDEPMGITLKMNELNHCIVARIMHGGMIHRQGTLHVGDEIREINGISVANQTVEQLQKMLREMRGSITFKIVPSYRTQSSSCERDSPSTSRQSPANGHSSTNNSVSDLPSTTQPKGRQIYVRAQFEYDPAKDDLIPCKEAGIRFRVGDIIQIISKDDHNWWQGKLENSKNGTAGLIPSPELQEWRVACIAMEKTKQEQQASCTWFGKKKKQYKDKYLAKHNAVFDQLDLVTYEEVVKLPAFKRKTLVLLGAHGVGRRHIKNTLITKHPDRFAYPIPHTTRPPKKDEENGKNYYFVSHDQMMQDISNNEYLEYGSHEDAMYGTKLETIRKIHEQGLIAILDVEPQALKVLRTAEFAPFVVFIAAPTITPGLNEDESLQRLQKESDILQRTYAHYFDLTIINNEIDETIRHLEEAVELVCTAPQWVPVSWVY
# Chain of MAP4K4 (O95819 whole entry): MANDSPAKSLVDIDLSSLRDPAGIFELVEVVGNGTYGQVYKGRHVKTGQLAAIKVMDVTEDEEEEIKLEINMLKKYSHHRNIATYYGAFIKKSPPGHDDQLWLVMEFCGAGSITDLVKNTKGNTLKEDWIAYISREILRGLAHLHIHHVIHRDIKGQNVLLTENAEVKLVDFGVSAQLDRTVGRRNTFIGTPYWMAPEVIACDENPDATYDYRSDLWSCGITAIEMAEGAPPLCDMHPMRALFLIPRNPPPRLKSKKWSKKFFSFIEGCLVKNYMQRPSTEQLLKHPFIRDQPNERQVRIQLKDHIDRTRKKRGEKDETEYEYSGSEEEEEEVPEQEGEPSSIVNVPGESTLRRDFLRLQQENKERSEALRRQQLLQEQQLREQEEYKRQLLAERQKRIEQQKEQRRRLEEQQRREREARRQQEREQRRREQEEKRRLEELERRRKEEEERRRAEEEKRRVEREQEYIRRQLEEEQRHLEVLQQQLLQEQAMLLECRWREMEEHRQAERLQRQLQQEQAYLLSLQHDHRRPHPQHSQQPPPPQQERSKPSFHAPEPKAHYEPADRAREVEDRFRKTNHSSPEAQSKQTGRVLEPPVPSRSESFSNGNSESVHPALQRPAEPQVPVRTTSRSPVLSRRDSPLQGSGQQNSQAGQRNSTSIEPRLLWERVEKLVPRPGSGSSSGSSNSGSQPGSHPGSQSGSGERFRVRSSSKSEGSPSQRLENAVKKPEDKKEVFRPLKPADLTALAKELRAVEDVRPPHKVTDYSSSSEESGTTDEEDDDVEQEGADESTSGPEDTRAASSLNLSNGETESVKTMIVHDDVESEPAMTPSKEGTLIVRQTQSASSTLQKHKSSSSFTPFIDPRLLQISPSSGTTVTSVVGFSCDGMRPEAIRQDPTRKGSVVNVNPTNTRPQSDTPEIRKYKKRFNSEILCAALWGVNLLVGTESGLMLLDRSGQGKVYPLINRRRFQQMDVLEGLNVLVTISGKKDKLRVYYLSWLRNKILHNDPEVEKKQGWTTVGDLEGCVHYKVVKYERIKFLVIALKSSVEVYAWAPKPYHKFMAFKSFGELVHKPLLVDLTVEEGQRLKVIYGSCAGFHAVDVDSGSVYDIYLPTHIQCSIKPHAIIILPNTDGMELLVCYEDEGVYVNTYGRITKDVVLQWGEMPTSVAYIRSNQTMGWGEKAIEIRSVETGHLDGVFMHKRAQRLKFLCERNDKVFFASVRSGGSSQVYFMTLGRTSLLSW
# Chain of SBK1 (Q52WX2 whole entry): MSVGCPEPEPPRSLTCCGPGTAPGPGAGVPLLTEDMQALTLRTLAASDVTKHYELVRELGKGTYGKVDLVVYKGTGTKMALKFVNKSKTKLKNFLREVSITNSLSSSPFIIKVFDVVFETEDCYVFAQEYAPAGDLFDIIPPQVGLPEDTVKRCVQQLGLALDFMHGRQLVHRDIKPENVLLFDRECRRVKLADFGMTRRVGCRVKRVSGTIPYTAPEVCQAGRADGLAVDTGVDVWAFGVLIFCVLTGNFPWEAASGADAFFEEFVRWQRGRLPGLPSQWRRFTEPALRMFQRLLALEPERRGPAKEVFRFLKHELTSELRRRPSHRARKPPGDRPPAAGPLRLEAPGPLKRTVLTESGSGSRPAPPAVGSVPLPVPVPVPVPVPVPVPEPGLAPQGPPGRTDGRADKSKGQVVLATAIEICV
# Chain of PFTAIRE2 (Q96Q40 whole entry): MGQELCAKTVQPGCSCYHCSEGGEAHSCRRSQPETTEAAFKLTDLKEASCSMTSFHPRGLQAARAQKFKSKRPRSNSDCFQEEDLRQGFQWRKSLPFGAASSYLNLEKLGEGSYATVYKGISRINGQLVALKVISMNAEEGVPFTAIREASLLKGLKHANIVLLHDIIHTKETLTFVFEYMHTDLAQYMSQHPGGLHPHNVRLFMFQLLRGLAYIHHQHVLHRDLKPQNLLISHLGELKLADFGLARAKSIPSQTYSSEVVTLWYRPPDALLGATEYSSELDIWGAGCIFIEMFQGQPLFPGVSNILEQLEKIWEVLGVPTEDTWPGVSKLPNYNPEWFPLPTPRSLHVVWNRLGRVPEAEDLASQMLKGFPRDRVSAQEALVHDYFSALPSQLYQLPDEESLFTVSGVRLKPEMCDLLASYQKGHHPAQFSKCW
# Chain of AXL (P30530 26-894): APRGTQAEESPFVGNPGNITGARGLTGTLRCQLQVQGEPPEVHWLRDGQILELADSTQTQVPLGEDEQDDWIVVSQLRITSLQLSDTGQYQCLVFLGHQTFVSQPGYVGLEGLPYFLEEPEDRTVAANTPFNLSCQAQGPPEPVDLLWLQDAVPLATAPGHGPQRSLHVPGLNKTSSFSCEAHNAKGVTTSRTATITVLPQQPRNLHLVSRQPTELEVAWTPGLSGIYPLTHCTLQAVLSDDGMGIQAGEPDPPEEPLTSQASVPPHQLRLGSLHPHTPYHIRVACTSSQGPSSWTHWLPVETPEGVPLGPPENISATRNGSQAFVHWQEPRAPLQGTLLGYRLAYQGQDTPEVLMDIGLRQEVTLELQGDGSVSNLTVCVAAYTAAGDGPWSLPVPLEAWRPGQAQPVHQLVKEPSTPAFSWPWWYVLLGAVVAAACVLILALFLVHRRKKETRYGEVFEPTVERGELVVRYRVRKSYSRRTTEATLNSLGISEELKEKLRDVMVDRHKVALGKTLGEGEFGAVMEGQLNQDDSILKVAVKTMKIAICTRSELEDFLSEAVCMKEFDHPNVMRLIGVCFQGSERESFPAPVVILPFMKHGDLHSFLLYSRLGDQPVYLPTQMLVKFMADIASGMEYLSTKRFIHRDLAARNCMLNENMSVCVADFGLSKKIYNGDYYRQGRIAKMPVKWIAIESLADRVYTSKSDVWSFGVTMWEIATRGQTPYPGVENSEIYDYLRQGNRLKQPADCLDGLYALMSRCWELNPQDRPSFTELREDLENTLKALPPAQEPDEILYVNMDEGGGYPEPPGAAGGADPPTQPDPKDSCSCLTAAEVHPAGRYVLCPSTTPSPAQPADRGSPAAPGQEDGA
# Chain of RET (P07949 29-1114): as the sequence (P07949 29-1114 V804L) above, with L776V counted along it
Structure (SMILES),remaining binding at 1 µM (RET(V804L)) [%],remaining binding at 1 µM (EPHB4) [%],remaining binding at 1 µM [1] [%],remaining binding at 1 µM (SBK1) [%],remaining binding at 1 µM (FGFR4) [%],remaining binding at 1 µM (MINK) [%],remaining binding at 1 µM (CASK) [%],remaining binding at 1 µM (KIT(D816H)) [%],remaining binding at 1 µM (RET) [%],remaining binding at 1 µM (GRK1) [%],remaining binding at 1 µM (MAP4K4) [%],remaining binding at 1 µM (QSK) [%],remaining binding at 1 µM (AXL) [%],remaining binding at 1 µM (ARK5) [%],remaining binding at 1 µM (RIOK1) [%],remaining binding at 1 µM (MUSK) [%],remaining binding at 1 µM (FGFR3) [%],remaining binding at 1 µM (PIK3CA) [%],remaining binding at 1 µM (LRRK2) [%],remaining binding at 1 µM (NDR1) [%],other results
"CCNc1cc(Nc2ccc(C(=O)N3CCC(N4CCOCC4)CC3)cc2OC)nc2[nH]cc(C(F)(F)F)c12 [Example 57, (4-((4-(ethylamino)-3-(trifluoromethyl)-1H-pyrrolo[2,3-b]pyridin-6-yl)amino)-3-methoxyphenyl) (4-morpholinopiperidin-1-yl)methanone]",91,88,100,90,92,100,88,96,100,94,100,87,100,94,94,100,94,87,48,89,remaining binding at 1 µM (NEK9): 89%; remaining binding at 1 µM [2]: 100%; remaining binding at 1 µM (PKN2): 92%; remaining binding at 1 µM (PIK3CA(H1047L)): 100%; remaining binding at 1 µM (PIM2): 98%; remaining binding at 1 µM [3]: 84%; remaining binding at 1 µM (RIOK2): 100%; remaining binding at 1 µM (MST1R): 70%; remaining binding at 1 µM (RIPK4): 95%; remaining binding at 1 µM (PFTAIRE2): 94%; remaining binding at 1 µM [4]: 96%; remaining binding at 1 µM [5]: 77%; remaining binding at 1 µM (FLT3(N841I)): 85%; remaining binding at 1 µM (TAOK2): 85%; remaining binding at 1 µM (NEK2): 94%; remaining binding at 1 µM (TSSK3): 91%; remaining binding at 1 µM (AURKA): 83%; remaining binding at 1 µM (CAMK1D): 73%
"CCNc1cc(Nc2ccc(C(=O)N3CCC(N4CCOCC4)CC3)cc2OC)nc2[nH]cc(C#N)c12 [Example 18, 4-(ethylamino)-6-((2-methoxy-4-(4-morpholinopiperidine-1-carbonyl)phenyl)amino)-1H-pyrrolo[2,3-b]pyridine-3-carbonitrile]",97,100,80,86,80,55,76,80,100,81,100,92,98,94,94,97,93,100,1.1,69,remaining binding at 1 µM (NEK9): 91%; remaining binding at 1 µM [2]: 96%; remaining binding at 1 µM (PKN2): 92%; remaining binding at 1 µM (PIK3CA(H1047L)): 85%; remaining binding at 1 µM (PIM2): 96%; remaining binding at 1 µM [3]: 77%; remaining binding at 1 µM (RIOK2): 63%; remaining binding at 1 µM (MST1R): 81%; remaining binding at 1 µM (RIPK4): 69%; remaining binding at 1 µM (PFTAIRE2): 79%; remaining binding at 1 µM [4]: 100%; remaining binding at 1 µM [5]: 64%; remaining binding at 1 µM (FLT3(N841I)): 89%; remaining binding at 1 µM (TAOK2): 77%; remaining binding at 1 µM (NEK2): 100%; remaining binding at 1 µM (TSSK3): 30%; remaining binding at 1 µM (AURKA): 94%; remaining binding at 1 µM (CAMK1D): 31%
